pIC50: −log10 of the molar value. Read-outs that look alike come from different tables or passages of the source.
Test system: DUX4 expression (surrogate marker MBD3L2)
Assay: Screening: qPCR analysis of DUX4 target gene MBD3L2 in differentiating MB200 FSHD2 muscle cells
Type: cell-based
Conditions: Homo sapiens, 40 hours, DUX4 expression inferred from surrogate marker MBD3L2 expression (qPCR, normalized to RPL30)
Method: Cells and Cell Culture. Primary human myoblast cell lines, immortalized by retroviral transduction of cyclin-dependent kinase 4 (CDK4) and human telomerase reverse transcriptase (hTERT) (Stadler, et al., 2011), were obtained from the Fields Center at the University of Rochester (world-wide-web at urmc.rochester.edu/fields-center.aspx). Immortalized myoblasts were grown in Ham's F-10 Nutrient Mix (Gibco, Waltham, MA, USA) supplemented with 20% HyClone Fetal Bovine Serum (GE Healthcare Life Sciences, Pittsburgh, PA, USA), 100 U/100 μg penicillin/streptomycin (Gibco), 10 ng/ml recombinant human fibroblast growth factor (Promega Corporation, Madison, WI, USA) and 1 μM dexamethasone (Sigma-Aldrich). Differentiation of myoblasts into myotubes was achieved by switching the fully confluent myoblast monolayer into Dulbecco's Modified Eagle Medium (DMEM) (Gibco) containing 1% horse serum (Gibco), 100 U/100 μg penicillin/streptomycin, 10 μg/ml insulin (Sigma-Aldrich) and 10 μg/ml transferrin (Sigma-Aldrich) (HS/IT media) or DMEM:F12 Nutrient Mixture (1:1, Gibco) supplemented with 2% KnockOut Serum Replacement (Gibco), 100 U/100 μg penicillin/streptomycin, 10 μg/ml insulin and 10 μg/ml transferrin (KSR media) for 2-6 days.
Screening: qPCR analysis of DUX4 target genes MBD3L2. For screening compounds, differentiating MB200 FSHD2 muscle cells were exposed to BET inhibitors at a variety of concentrations for 40 hours to determine the effects of the drugs on DUX4 expression. Cell lysates were prepared using Cells-to-Ct Bulk Lysis Reagents (Invitrogen, Waltham, MA, USA). Gene expression was measured by quantitative polymerase chain reaction (qPCR) was carried out on a QuantStudio 5 (Applied Biosystems, Waltham, MA, USA) using TaqMan Gene Expression Assays (Applied Biosystems) and TaqMan Fast Virus 1-Step Master Mix (Invitrogen). The relative expression levels of DUX4 target gene methyl-CpG binding domain protein 3 like 2 (MBD3L2), was normalized to that of the reference gene ribosomal protein L30 (RPL30), which was included in multiplex (two gene) PCR reactions. TaqMan Gene Expression Assay ID numbers: MBD3L2, Hs00544743_m1; RPL30, Hs00265497_m1. Data is expressed as relative expression with the expression in absence of inhibitors set to one.
Analysis of MBD3L2 expression in cultured FSHD2 cells. DUX4 mRNA is present in very low levels, even in differentiating FSHD2 myoblasts, so DUX4 target gene MBD3L2 was used as a surrogate marker of DUX4 expression. FSHD2 patient derived muscle cells were analyzed to determine whether BET inhibitors affect MBD3L2 expression, indicating a reduction in DUX4 expression.

With `CCN1CCN(CCOc2ccc(-c3ccc4cc(-c5cn(C)c(=O)c6[nH]ccc56)ccc4n3)cc2)CC1=O` [SLU-2243, 4-{2-[4-(2-(4-ethyl-3-oxopiperazin-1-yl)ethoxy)phenyl]quinolin-6-yl}-6-methyl-1H-pyrrolo[2,3-c]pyridin-7(6H)-one] the pIC50 (read-out: DUX4* MT FSHD2: IC50) was 6.96 and the pIC50 (read-out: DUX4* MT FSHD2 IC50) was 6.96.

Work on `CN1CCN(CCOc2ccc(-c3ccc4cc(-c5cn(C)c(=O)c6[nH]ccc56)ccc4n3)cc2)CC1=O` [SLU-2244, 6-methyl-4-{2-[4-(2-(4-methyl-3-oxopiperazin-1-yl)ethoxy)phenyl]quinolin-6-yl}-1H-pyrrolo[2,3-c]pyridin-7(6H)-one] yielded a pIC50 (read-out: DUX4* MT FSHD2: IC50) of 7.55 and a pIC50 (read-out: DUX4* MT FSHD2 IC50) of 7.55.

Compound `CN1CCN(CCOc2ccc(-c3ccc4cc(-c5cn(C)c(=O)c6[nH]ccc56)ccc4n3)cc2)CCC1=O` [SLU-2277, 6-methyl-4-{2-[4-(2-(4-methyl-5-oxo-1,4-diazepan-1-yl)ethoxy)phenyl]quinolin-6-yl}-1,6-dihydro-7H-pyrrolo[2,3-c]pyridin-7-one] has a pIC50 (read-out: DUX4* MT FSHD2: IC50) of 7.70 and a pIC50 (read-out: DUX4* MT FSHD2 IC50) of 7.70.

For `Cn1cc(-c2ccc3cc(-c4ccc(OCCN5CCOCC5)cc4)ccc3n2)c2cc[nH]c2c1=O` [SLU-2278, 6-methyl-4-{6-[4-(2-morpholinoethoxy)phenyl]quinolin-2-yl}-1,6-dihydro-7H-pyrrolo[2,3-c]pyridin-7-one], the pIC50 (read-out: DUX4* MT FSHD2: IC50) was 6.92 and the pIC50 (read-out: DUX4* MT FSHD2 IC50) was 6.92.

Work on `C[C@@H]1CCC[C@H](C)N1CCOc1ccc(-c2ccc3nc(-c4cn(C)c(=O)c5[nH]ccc45)ccc3c2)cc1` [SLU-2279, 4-{6-[4-(2-((2R,6S)-2,6-dimethylpiperidin-1-yl)ethoxy)phenyl]quinolin-2-yl}-6-methyl-1H-pyrrolo[2,3-c]pyridin-7(6H)-one] yielded a pIC50 (read-out: DUX4* MT FSHD2: IC50) of 6.38 and a pIC50 (read-out: DUX4* MT FSHD2 IC50) of 6.38.

`CN1CCN(CCOc2ccc(-c3ccc4nc(-c5cn(C)c(=O)c6[nH]ccc56)ccc4c3)cc2)C(C)(C)C1=O` [SLU-2280, 6-methyl-4-{6-[4-(2-(2,2,4-trimethyl-3-oxopiperazin-1-yl)ethoxy)phenyl]quinolin-2-yl}-1H-pyrrolo[2,3-c]pyridin-7(6H)-one] was tested, and the pIC50 (read-out: DUX4* MT FSHD2: IC50) was 6.92 and the pIC50 (read-out: DUX4* MT FSHD2 IC50) was 6.92.

In the case of `C#CCN1CCN(CCOc2ccc(-c3ccc4cc(-c5cn(C)c(=O)c6[nH]ccc56)ccc4n3)cc2)CC1=O` [SLU-2281, 6-methyl-4-{2-[4-(2-(3-oxo-4-(prop-2-yn-1-yl)piperazin-1-yl)ethoxy)phenyl]quinolin-6-yl}-1H-pyrrolo[2,3-c]pyridin-7(6H)-one], the pIC50 (read-out: DUX4* MT FSHD2: IC50) was 6.89 and the pIC50 (read-out: DUX4* MT FSHD2 IC50) was 6.89.

In the case of `CCCN1CCN(CCOc2ccc(-c3ccc4cc(-c5cn(C)c(=O)c6[nH]ccc56)ccc4n3)cc2)CC1=O` [SLU-2282, 6-methyl-4-{2-[4-(2-(3-oxo-4-propylpiperazin-1-yl)ethoxy)phenyl]quinolin-6-yl}-1H-pyrrolo[2,3-c]pyridin-7(6H)-one], the pIC50 (read-out: DUX4* MT FSHD2: IC50) was 7.27 and the pIC50 (read-out: DUX4* MT FSHD2 IC50) was 7.27.

`CN1CCN(CCOc2ccc(-c3ccc4nc(-c5cn(C)c(=O)c6[nH]ccc56)ccc4c3)cc2)CC1=O` [SLU-2283, 6-methyl-4-{6-[4-(2-(4-methyl-3-oxopiperazin-1-yl)ethoxy)phenyl]quinolin-2-yl}-1H-pyrrolo[2,3-c]pyridin-7(6H)-one] showed a pIC50 (read-out: DUX4* MT FSHD2: IC50) of 6.80 and a pIC50 (read-out: DUX4* MT FSHD2 IC50) of 6.80.

In the case of `C[C@@H]1C(=O)N(C)CCCN1CCOc1ccc(-c2ccc3cc(-c4cn(C)c(=O)c5[nH]ccc45)ccc3n2)cc1` [SLU-2284, (R)-4-{2-[4-(2-(2,4-dimethyl-3-oxo-1,4-diazepan-1-yl)ethoxy)phenyl]quinolin-6-yl}-6-methyl-1H-pyrrolo[2,3-c]pyridin-7(6H)-one], the pIC50 (read-out: DUX4* MT FSHD2: IC50) was 7.05 and the pIC50 (read-out: DUX4* MT FSHD2 IC50) was 7.05.

Compound `Cn1cc(-c2ccc3nc(-c4ccc(OCCN5CCC(F)(F)CC5)cc4)ccc3c2)c2cc[nH]c2c1=O` [SLU-2285, 4-{2-[4-(2-(4,4-difluoropiperidin-1-yl)ethoxy)phenyl]quinolin-6-yl}-6-methyl-1H-pyrrolo[2,3-c]pyridin-7(6H)-one] has a pIC50 (read-out: DUX4* MT FSHD2: IC50) of 6.24 and a pIC50 (read-out: DUX4* MT FSHD2 IC50) of 6.24.

For `C[C@@H]1CN(C)C(=O)CN1CCOc1ccc(-c2ccc3cc(-c4cn(C)c(=O)c5[nH]ccc45)ccc3n2)cc1` [SLU-2286, (R)-4-{2-[4-(2-(2,4-dimethyl-5-oxopiperazin-1-yl)ethoxy)phenyl]quinolin-6-yl}-6-methyl-1H-pyrrolo[2,3-c]pyridin-7(6H)-one], the pIC50 (read-out: DUX4* MT FSHD2: IC50) was 7.20 and the pIC50 (read-out: DUX4* MT FSHD2 IC50) was 7.20.

Work on `C[C@H]1CN(C)C(=O)CN1CCOc1ccc(-c2ccc3cc(-c4cn(C)c(=O)c5[nH]ccc45)ccc3n2)cc1` [SLU-2287, (S)-4-{2-[4-(2-(2,4-dimethyl-5-oxopiperazin-1-yl)ethoxy)phenyl]quinolin-6-yl}-6-methyl-1,6-dihydro-7H-pyrrolo[2,3-c]pyridin-7-one] yielded a pIC50 (read-out: DUX4* MT FSHD2: IC50) of 6.97 and a pIC50 (read-out: DUX4* MT FSHD2 IC50) of 6.97.

`CN1CCN(CCOc2ccc(-c3ccc4cc(-c5cn(C)c(=O)c6[nH]ccc56)ccc4n3)cc2)CC1` [SLU-2288] was tested, and the pIC50 (read-out: DUX4* MT FSHD2: IC50) was 6.60 and the pIC50 (read-out: DUX4* MT FSHD2 IC50) was 6.60.

`C[C@@H]1C(=O)N(C)CCN1CCCOc1cccc(-c2ccc3cc(-c4cn(C)c(=O)c5[nH]ccc45)ccc3n2)c1` [SLU-2292, (R)-4-{2-[3-(3-(2,4-dimethyl-3-oxopiperazin-1-yl)propoxy)phenyl]quinolin-6-yl}-6-methyl-1H-pyrrolo[2,3-c]pyridin-7(6H)-one] gave a pIC50 (read-out: DUX4* MT FSHD2: IC50) of 7.60 and a pIC50 (read-out: DUX4* MT FSHD2 IC50) of 7.60.

Work on `C=CCn1cc(-c2ccc3nc(-c4ccc(OCCN5CCN(C)C(=O)[C@H]5C)cc4)ccc3c2)c2cc[nH]c2c1=O` [SLU-2293, (R)-6-allyl-4-{2-[4-(2-(2,4-dimethyl-3-oxopiperazin-1-yl)ethoxy)phenyl]quinolin-6-yl}-1H-pyrrolo[2,3-c]pyridin-7(6H)-one] yielded a pIC50 (read-out: DUX4* MT FSHD2: IC50) of 7.74 and a pIC50 (read-out: DUX4* MT FSHD2 IC50) of 7.74.

Work on `COc1ccc2cc(-c3cn(C)c(=O)c4[nH]ccc34)ccc2n1` [SLU-2294, 4-(2-methoxyquinolin-6-yl)-6-methyl-1H-pyrrolo[2,3-c]pyridin-7(6H)-one] yielded a pIC50 (read-out: DUX4* MT FSHD2: IC50) of 7.23 and a pIC50 (read-out: DUX4* MT FSHD2 IC50) of 7.23.

For `CCn1cc(-c2ccc3cc(-c4ccc(OCCN5CCN(C)C(=O)[C@H]5C)cc4)ccc3n2)c2cc[nH]c2c1=O` [SLU-2295, (R)-4-{6-[4-(2-(2,4-dimethyl-3-oxopiperazin-1-yl)ethoxy)phenyl]quinolin-2-yl}-6-ethyl-1H-pyrrolo[2,3-c]pyridin-7(6H)-one], the pIC50 (read-out: DUX4* MT FSHD2: IC50) was 7.29 and the pIC50 (read-out: DUX4* MT FSHD2 IC50) was 7.29.

`CCn1cc(-c2ccc3nc(-c4ccc(OCCN5CCN(C)C(=O)[C@H]5C)cc4)ccc3c2)c2cc[nH]c2c1=O` [SLU-2296, (R)-4-{2-[4-(2-(2,4-dimethyl-3-oxopiperazin-1-yl)ethoxy)phenyl]quinolin-6-yl}-6-ethyl-1H-pyrrolo[2,3-c]pyridin-7(6H)-one] was tested, and the pIC50 (read-out: DUX4* MT FSHD2: IC50) was 7.24 and the pIC50 (read-out: DUX4* MT FSHD2 IC50) was 7.24.

`C[C@@H]1C(=O)N(C)CCN1CCOc1ccc(-c2ccc3cc(-c4cn(C(F)F)c(=O)c5[nH]ccc45)ccc3n2)cc1` [SLU-2297, (R)-6-(difluoromethyl)-4-{2-[4-(2-(2,4-dimethyl-3-oxopiperazin-1-yl)ethoxy)phenyl]quinolin-6-yl}-1H-pyrrolo[2,3-c]pyridin-7(6H)-one] showed a pIC50 (read-out: DUX4* MT FSHD2: IC50) of 5.80 and a pIC50 (read-out: DUX4* MT FSHD2 IC50) of 5.80.

Work on `Cn1cc(-c2ccc3ncccc3c2)c2cc[nH]c2c1=O` [SLU-2298, 6-methyl-4-(quinolin-6-yl)-1H-pyrrolo[2,3-c]pyridin-7(6H)-one] yielded a pIC50 (read-out: DUX4* MT FSHD2: IC50) of 6.95 and a pIC50 (read-out: DUX4* MT FSHD2 IC50) of 6.95.

In the case of `C[C@@H]1C(=O)N(C)CCN1CCCOc1ccc(-c2ccc3cc(-c4cn(C)c(=O)c5[nH]ccc45)ccc3n2)cc1` [SLU-2299, (R)-4-{2-[4-(3-(2,4-dimethyl-3-oxopiperazin-1-yl)propoxy)phenyl]quinolin-6-yl}-6-methyl-1H-pyrrolo[2,3-c]pyridin-7(6H)-one], the pIC50 (read-out: DUX4* MT FSHD2: IC50) was 8.47 and the pIC50 (read-out: DUX4* MT FSHD2 IC50) was 8.47.
